Measurements from US20240381872A1, “SUBSTITUTED 2,3-DIHYDRO[1,3]THIAZOLO[4,5-B]PYRIDINES, SALTS THEREOF AND THEIR USE AS HERBICIDALLY ACTIVE SUBSTANCES” (BAYER AKTIENGESELLSCHAFT, priority 2021, published 2024).

Columns and labels:
Type in all cases: in vivo
[1] = test system: Echinochloa crus-galli (ECHCG); assay: Herbicidal post-emergence action, section B (Table B3); settings: Echinochloa crus-galli, 504 h, application rate 1280 g/ha, rated visually after about 3 weeks, read-out: post-emergence activity against ECHCG in %
Procedure: (§1) Seeds of mono- and dicotyledonous weed plants were placed in plastic pots in sandy loam soil (doubly sown with in each case one species of mono- or dicotyledonous weed plants per pot), covered with soil and cultivated in a greenhouse under controlled growth conditions. 2 to 3 weeks after sowing, the test plants were treated at the one-leaf stage. The compounds of the invention, formulated in the form of wettable powders (WP) or as emulsion concentrates (EC), were applied onto the green parts of the plants as aqueous suspension or emulsion with addition of 0.5% additive at a water application rate of 600 liters per hectare (converted). After the test plants had been kept in the greenhouse under optimum growth conditions for about 3 weeks, the activity of the preparations was rated visually in comparison to untreated controls. For example, 100% activity=the plants have died, 0% activity=like control plants.

Setaria viridis (SETVI) [2] = assay: Herbicidal pre-emergence action, section A (Table A8); settings: Setaria viridis, 504 h, application rate 1280 g/ha, read-out: pre-emergence activity against SETVI in %
How it was run: (§2)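 WP/EC formulations, aqueous, 0.5% additive, 600 l/ha → soil surface over seeds in sandy loam → greenhouse, optimum growth → visual % damage vs untreated at ca. 3 weeks.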

[3] = test system: Echinochloa crus-galli (ECHCG); assay: Herbicidal pre-emergence action, section A (Table A3); settings: Echinochloa crus-galli, pre-emergence, 504 h, visual grading after ca. 3 weeks vs untreated controls, read-out: pre-emergence activity against ECHCG in %
How it was run: as §2

Poa annua (POAAN) [4] = assay: Herbicidal post-emergence action, section B (Table B7); settings: Poa annua, post-emergence, 504 h; application rate 320 g/ha; visual rating about 3 weeks after treatment vs untreated controls; read-out: post-emergence activity against POAAN in %
How it was run: (§3)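 Weeds were sown in sandy loam and grown in a greenhouse, then sprayed at the one-leaf stage 2 to 3 weeks after sowing. Compounds, formulated as WP or EC, went on as aqueous suspension or emulsion with 0.5% additive at 600 liters per hectare. Visual rating after about 3 weeks against untreated controls (100% = plants dead, 0% = like controls).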

[5] = test system: Amaranthus retroflexus (AMARE); assay: Herbicidal pre-emergence action, section A (Table A11); settings: Amaranthus retroflexus, 504 h, application rate 1280 g/ha, read-out: pre-emergence activity against AMARE in %
How it was run: as §2

Lolium rigidum (LOLRI) [6] = assay: Herbicidal pre-emergence action, section A (Table A5); settings: Lolium rigidum, pre-emergence, 504 h; application rate 1280 g/ha; visual grading after ca. 3 weeks vs untreated controls; read-out: pre-emergence activity against LOLRI in %
How it was run: as §2

[7] = test system: Digitaria sanguinalis (DIGSA); assay: Herbicidal pre-emergence action, section A (Table A12); settings: Digitaria sanguinalis, 504 h, read-out: pre-emergence activity against DIGSA in %
How it was run: as §2

Stellaria media (STEME) [8] = assay: Herbicidal post-emergence action, section B (Table B9); settings: Stellaria media, post-emergence, 504 h, visual rating about 3 weeks after treatment vs untreated controls, read-out: post-emergence activity against STEME in %
How it was run: as §3

Stellaria media (STEME) [9] = assay: Herbicidal pre-emergence action, section A (Table A9); settings: Stellaria media, 504 h, application rate 320 g/ha, read-out: pre-emergence activity against STEME in %
How it was run: as §2

Kochia scoparia (KCHSC) [10] = assay: Herbicidal pre-emergence action, section A (Table A4); settings: Bassia scoparia, pre-emergence, 504 h; application rate 1280 g/ha; visual grading after ca. 3 weeks vs untreated controls; read-out: pre-emergence activity against KCHSC in %
How it was run: as §2

Veronica persica (VERPE) [11] = assay: Herbicidal post-emergence action, section B (Table B10); settings: Veronica persica, post-emergence, 504 h, visual rating about 3 weeks after treatment vs untreated controls, read-out: post-emergence activity against VERPE in %
How it was run: as §3

Veronica persica (VERPE) [12] = assay: Herbicidal pre-emergence action, section A (Table A10); settings: Veronica persica, 504 h, application rate 320 g/ha, read-out: pre-emergence activity against VERPE in %
How it was run: as §2

Kochia scoparia (KCHSC) [13] = assay: Herbicidal post-emergence action, section B (Table B4); settings: Bassia scoparia, post-emergence, 504 h, visual rating about 3 weeks after treatment vs untreated controls, read-out: post-emergence activity against KCHSC in %
How it was run: as §3

[14] = test system: Matricaria inodora (MATIN); assay: Herbicidal pre-emergence action, section A (Table A6); settings: Tripleurospermum inodorum, pre-emergence, 504 h; application rate 1280 g/ha; visual grading after ca. 3 weeks vs untreated controls; read-out: pre-emergence activity against MATIN in %
How it was run: as §2

Poa annua (POAAN) [15] = assay: Herbicidal pre-emergence action, section A (Table A7); settings: Poa annua, pre-emergence, 504 h; application rate 1280 g/ha; visual grading after ca. 3 weeks vs untreated controls; read-out: pre-emergence activity against POAAN in %
How it was run: as §2

Lolium rigidum (LOLRI) [16] = assay: Herbicidal post-emergence action, section B (Table B5); settings: Lolium rigidum, post-emergence, 504 h; application rate 1280 g/ha; visual rating about 3 weeks after treatment vs untreated controls; read-out: post-emergence activity against LOLRI in %
Procedure: as §1

[17] = test system: Digitaria sanguinalis (DIGSA); assay: Herbicidal post-emergence action, section B (Table B12); settings: Digitaria sanguinalis, post-emergence, 504 h; application rate 1280 g/ha; visual rating about 3 weeks after treatment vs untreated controls; read-out: post-emergence activity against DIGSA in %
Procedure: as §1

Setaria viridis (SETVI) [18] = assay: Herbicidal post-emergence action, section B (Table B8); settings: Setaria viridis, post-emergence, 504 h; application rate 1280 g/ha; visual rating about 3 weeks after treatment vs untreated controls; read-out: post-emergence activity against SETVI in %
Procedure: as §1

[19] = test system: Abutilon theophrasti (ABUTH); assay: Herbicidal post-emergence action, section B (Table B1); settings: Abutilon theophrasti, 504 h, application rate 1280 g/ha, rated visually after about 3 weeks, read-out: post-emergence activity against ABUTH in %
Procedure: as §1

[20] = test system: Amaranthus retroflexus (AMARE); assay: Herbicidal post-emergence action, section B (Table B11); settings: Amaranthus retroflexus, post-emergence, 504 h; application rate 320 g/ha; visual rating about 3 weeks after treatment vs untreated controls; read-out: post-emergence activity against AMARE in %
How it was run: as §3

SMILES	pest or weed control at 1280 g/ha [1] [%]	pest or weed control at 1280 g/ha (Setaria viridis (SETVI) [2]) [%]	pest or weed control at 320 g/ha (Poa annua (POAAN) [4]) [%]	pest or weed control at 1280 g/ha [5] [%]	pest or weed control at 1280 g/ha (Lolium rigidum (LOLRI) [6]) [%]	pest or weed control at 1280 g/ha (Kochia scoparia (KCHSC) [10]) [%]	pest or weed control at 1280 g/ha [14] [%]	pest or weed control at 1280 g/ha (Poa annua (POAAN) [15]) [%]	pest or weed control at 1280 g/ha (Lolium rigidum (LOLRI) [16]) [%]	other results
Cc1cscc1-c1nc2c(cc1C)[S+]([O-])CN2 (stereo not shown) [Example I-023]	90	100	90	90	100	90	90	100	90	pest or weed control at 1280 g/ha ([3]; application rate 1280 g/ha): 100%; pest or weed control at 1280 g/ha ([7]; application rate 1280 g/ha): 100%; pest or weed control at 1280 g/ha (Stellaria media (STEME) [8]; application rate 1280 g/ha): 90%; pest or weed control at 320 g/ha (Stellaria media (STEME) [9]): 90%; pest or weed control at 1280 g/ha (Veronica persica (VERPE) [11]; application rate 1280 g/ha): 90%; pest or weed control at 320 g/ha (Veronica persica (VERPE) [12]): 90%; pest or weed control at 1280 g/ha (Kochia scoparia (KCHSC) [13]; application rate 1280 g/ha): 90%
NB1OB(N2CSc3cc(Br)c(-c4ccccc4Cl)nc32)O1 [Example I-048, 4-[6-bromo-5-(2-chlorophenyl)-2,3-dihydro[1,3]thiazolo[4,5-b]pyridin-3(2H)-yl]-1,3,2,4-dioxa-diboretan-2-amine]	90	100	90	90	100	90	90	100	90	pest or weed control at 1280 g/ha [17]: 90%; pest or weed control at 1280 g/ha (Setaria viridis (SETVI) [18]): 90%; pest or weed control at 320 g/ha ([3]; application rate 320 g/ha): 100%; pest or weed control at 1280 g/ha [19]: 90%; pest or weed control at 320 g/ha ([7]; application rate 320 g/ha): 100%; pest or weed control at 320 g/ha (Stellaria media (STEME) [8]; application rate 320 g/ha): 90%; pest or weed control at 320 g/ha (Veronica persica (VERPE) [11]; application rate 320 g/ha): 90%; pest or weed control at 320 g/ha [20]: 90%; pest or weed control at 320 g/ha (Kochia scoparia (KCHSC) [13]; application rate 320 g/ha): 90%
